These results are taken from PubChem BioAssay (NCI).

Experiment in all cases: NCI tumour cell line growth inhibition, 48 h
Assay [1] relates to U251 CNS.
Assay [2] concerns SK-MEL-5 melanoma.
Assay [3] has as its system M14 melanoma.
Assay [4] deals with CCRF-CEM leukemia.
The subject of assay [5] is SF-295 CNS.
For assay [6], the system named is PC-3 prostate.
The test system of assay [7] is HCT-116 colon.
The test system of assay [8] is UACC-257 melanoma.
For assay [9], the system named is OVCAR-3 ovarian.
For assay [10], the system named is NCI-H460 lung.

Each structure is given as a SMILES string. Values joined by “and” are separate entries in the source; they are usually repeats but may differ in a detail not shown here. Equal entries are not always repeated.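 Interpolation was linear, between the two tested concentrations surrounding the appropriate level; five concentrations were tested over 48 hours in 96-well plates. GI50 = concentration required for 50% inhibition of growth. TGI denotes the concentration required for complete inhibition of growth.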

With `O=c1c2[nH]c3ccccc3c2nc2n1CCS2`, the GI50 in assay [1] was above 100 µM; in assay [2], above 100 µM; in assay [3], above 100 µM; in assay [4], 0.598 µM; in [5], above 100 µM; in assay [6], 47.8 µM. In addition, the GI50 in assay [7], in assay [8], in assay [9] and in [10] was above 100 µM throughout. Moreover, the TGI in [1], in assay [2], in assay [3], in assay [4], in [5] and in assay [6] was above 100 µM each time. Moreover, the TGI in assay [7], in assay [8], in assay [9] and in assay [10] was above 100 µM throughout.
As for `COc1cccc2c1nc1cccc(OC)c1[n+]2[O-]`, the GI50 in assay [1] was 6.83 µM; in [2], 6.96 µM; in assay [3] it was 3.47 µM; in assay [4] it was 2.35 µM; in [5], 2.11 µM; in [6], 13.3 µM. The GI50 in [7] is 3.64 µM; in [8], 13.1 µM; in [9] it was 15.7 µM; in assay [10] it was 2.76 µM. For the same compound, the TGI in assay [1] is 21.3 µM; in assay [2], 20 µM; in assay [3] it was 16.2 µM; in assay [4], 13.3 µM; in assay [5], 7.96 µM; in assay [6] it was 37 µM. Further, the TGI amounted to 16.9 µM in assay [7], 35 µM in assay [8], 39.2 µM in assay [9] and 10.7 µM in assay [10].
For the compound `O=C1c2ccc3c4c(ccc(c24)C(=O)N1CCCNCc1ccccc1)C(=O)N(CCCNCc1ccccc1)C3=O`, the GI50 is 0.112 µM in [1]; 0.165 µM in assay [2]; 0.161 µM in [3]; 0.17 µM in assay [4]; 0.173 µM in assay [5]; 0.203 µM in [6]. In addition, the GI50 in assay [7] is 0.0801 µM; in assay [8], 0.199 µM; in assay [9], 0.13 µM; in [10], 0.146 µM. Besides, the TGI in [1] amounted to 0.301 µM; in [2], 0.302 µM; in [3], 0.307 µM; in assay [4], 4.73 µM; in assay [5] it was 0.432 µM; in assay [6] it was 0.622 µM. The TGI in assay [7] is 0.39 µM; in assay [8] it was 0.386 µM; in assay [9], 0.476 µM; in [10], 0.579 µM.
As for `CCCCCCCCCCCCOC1C(CNCC2OC3OC(C)(C)OC3C2NC(=O)Nc2ccc(C(F)(F)F)cc2)OC2OC(C)(C)OC21` (configuration not stated), the GI50 is 4.63 µM in [1]; 8.15 µM in assay [2]; 8.27 µM in [3]; 2.45 µM in assay [4]; 9 µM in assay [5]; 6.68 µM in assay [6]. For the same compound, the GI50 in assay [7] was 2.46 µM; in [8], 8.62 µM; in [9], 4.59 µM; in assay [10], 4.23 µM. Also, the TGI was found to be 12.2 µM in assay [1]; 15.1 µM in assay [2]; 15.8 µM in [3]; 12.5 µM in assay [4]; 17.9 µM in assay [5]; 13.2 µM in assay [6]. Moreover, the TGI in assay [7] was determined as 4.7 µM; in assay [8] it was 17.9 µM; in [9], 13.3 µM; in assay [10], 11.8 µM.
Take `CN(C)CCNC(=O)c1cccc2cc([N+](=O)[O-])ccc12`: the GI50 was 2.19 µM and 0.233 µM in [1]; 1.65 µM and 0.213 µM in assay [2]; 1.6 µM and 0.441 µM in assay [3]; 0.719 µM and 0.141 µM in assay [4]; 0.989 µM and 0.414 µM in assay [5]; 0.513 µM and 0.0724 µM in [7]. Further, the GI50 was 2.36 µM and 0.332 µM in assay [9]; 0.39 µM in assay [10]. For the same compound, the TGI was 11.9 µM and 2.79 µM in [1]; 4.92 µM and 0.774 µM in [2]; 3.32 µM and 1.2 µM in assay [3]; 6.07 µM and 0.939 µM in [4]; 3.77 µM and 2.66 µM in [5]; 9.44 µM in assay [6]. Besides, the TGI in assay [8] was 0.897 µM; in [9], 11.7 µM and 2.26 µM; in assay [10], 2.05 µM.
As for `Cc1ccc(Nc2[nH]c(C(=O)c3ccc(Cl)cc3)c(N)c2C(=S)Nc2ccccc2)nc1`, the GI50 in assay [1] is 26.8 µM; in assay [2], 14 µM; in assay [3] it was 77.8 µM; in assay [4], 38.1 µM; in assay [5] it was 21.5 µM; in [6] it was 26.5 µM. The GI50 is 42.8 µM in assay [7], 33.3 µM in [8], 29.4 µM in assay [9] and 23.9 µM in [10]. The TGI is above 100 µM in assay [1]; 33.7 µM in assay [2]; above 100 µM in [3]; above 100 µM in assay [4]; 67.3 µM in [5]; above 100 µM in [6]. Besides, the TGI is above 100 µM in assay [7], above 100 µM in [8], 74 µM in [9] and above 100 µM in assay [10].
Turning to `COc1cc(-c2nc3ccccc3[nH]2)ccc1OCC(=O)N=Nc1c(O)[nH]c2ccc(Cl)cc12`, the GI50 in assay [1] is 0.468 µM; in [2], 1.72 µM; in assay [3] it was 1.67 µM; in assay [4] it was 0.5 µM; in assay [5], 1.81 µM; in assay [6] it was 1.48 µM. The GI50 in assay [7] was 0.4 µM; in [8], 1.91 µM; in assay [9], 0.96 µM; in assay [10], 1.15 µM. The TGI in [1] was 1.88 µM; in assay [2] it was 3.2 µM; in assay [3] it was 3.65 µM; in assay [4], 3.56 µM; in assay [5], 3.35 µM; in assay [6] it was 3.06 µM. In addition, the TGI in assay [7] is 1.53 µM; in assay [8] it was 3.78 µM; in assay [9], 2.2 µM; in assay [10], 2.84 µM.
`CC(C)(C)CC(C)(C)N(CSc1ccc(Cl)cc1)CSc1ccc(Cl)cc1`: the GI50 in assay [1] was 0.415 µM; in assay [2], 1.29 µM; in assay [3] it was 1.92 µM; in assay [4] it was 0.366 µM; in assay [5] it was 0.316 µM; in assay [6] it was 0.472 µM. The GI50 was 1.42 µM in assay [7], 1.85 µM in assay [8], 1.78 µM in assay [9] and 0.829 µM in assay [10]. In addition, the TGI in assay [1] came out at 2.09 µM; in assay [2], 2.61 µM; in assay [3] it was 5.91 µM; in [4], 3.38 µM; in assay [5] it was 1.33 µM; in [6], 4.3 µM. Further, the TGI in assay [7] was 5.85 µM; in assay [8] it was 6.18 µM; in assay [9], 4.25 µM; in [10] it was 8.38 µM.
For `CN(C)CCN1C(=O)c2cccc3c(N)ccc(c23)C1=O`, the GI50 in [1] was 10.7 µM; in assay [2], 9.13 µM; in [3], 11.3 µM; in assay [4], 9.63 µM; in assay [5], 10 µM; in assay [6], 13.5 µM. In addition, the GI50 was 9.49 µM in assay [7], 11.2 µM in assay [8], 15.9 µM in assay [9] and 7.42 µM in assay [10]. Further, the TGI in assay [1], in assay [2], in assay [3], in [4], in assay [5] and in assay [6] was above 25 µM each time. The TGI in assay [7] is above 25 µM; in assay [8] it was above 25 µM; in assay [9], above 25 µM; in assay [10] it was 23.8 µM.
In the case of `c1ccc(CCCNc2nnnc3ccccc23)cc1`, the TGI in assay [1], in assay [2], in [3], in [4], in assay [5] and in assay [6] was above 100 µM each time. In addition, the TGI in [7], in assay [8], in assay [9] and in assay [10] was above 100 µM in each case.
For the compound `COc1nc2c(cc1S(=O)(=O)c1ccccc1)CCc1c-2cnn1Cc1ccccc1`, the GI50 in [1] was 7.58 µM; in [2], 2.89 µM; in assay [3] it was above 100 µM; in assay [4] it was 16.8 µM; in assay [5], 9.47 µM; in assay [6], 4.23 µM. The GI50 was 3.8 µM in assay [7], 59.7 µM in assay [8], 9.35 µM in [9] and 7.06 µM in assay [10]. Besides, the TGI in assay [1], in assay [2], in assay [3], in assay [4], in assay [5] and in assay [6] was above 100 µM throughout. The TGI in assay [7], in [8], in [9] and in assay [10] was above 100 µM throughout.
